The text below walks through data of patent publication US8084649B2, “Herbicides” (Syngenta Crop Protection, inc., priority 2007, dated 2011).

What all share (type): in vivo
Assay [1] concerns Avena fatua (AVEFA). The experiment in a line: Post-emergence herbicidal activity, glasshouse pot test. As to conditions: evaluated after 14 or 15 days; for pest or weed control at 125 g/ha / pest or weed control at 500 g/ha: Avena fatua, read-out: Post-emergence activity, AVEFA (100=total damage to plant; 0=no damage to plant); for pest or weed control at 125 g/ha: rate 125 g/ha. The gist of the method: (§1)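 Plants sown in sterilised standard soil, grown 10 days in glasshouse, then sprayed with aqueous dilution of active ingredient formulated in acetone plus Emulsogen EL/N-methylpyrrolidone/dipropylene glycol monomethyl ether/X-77 solution. Damage scored visually 14 or 15 days after spraying, 0 (none) to 100 (total).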

In assay [2] the test system is Digitaria sanguinalis (DIGSA). Described as above. The following applies: evaluated after 14 or 15 days; for pest or weed control at 125 g/ha / pest or weed control at 500 g/ha: Digitaria sanguinalis, read-out: Post-emergence activity, DIGSA (100=total damage to plant; 0=no damage to plant); for pest or weed control at 125 g/ha: rate 125 g/ha. A digest of the protocol: as §1

Assay [3] has as its system Setaria faberi (SETFA). Described as above. The following applies: evaluated after 14 or 15 days; for pest or weed control at 125 g/ha / pest or weed control at 500 g/ha: Setaria faberi, read-out: Post-emergence activity, SETFA (100=total damage to plant; 0=no damage to plant); for pest or weed control at 125 g/ha: rate 125 g/ha. A digest of the protocol: as §1
In assay [4] the test system is Echinochloa crus-galli (ECHCG). The assay is described as above. As to conditions: evaluated after 14 or 15 days; for pest or weed control at 125 g/ha / pest or weed control at 500 g/ha: Echinochloa crus-galli, read-out: Post-emergence activity, ECHCG (100=total damage to plant; 0=no damage to plant); for pest or weed control at 125 g/ha: rate 125 g/ha. A digest of the protocol: as §1

For assay [5], the system named is Lolium perenne (LOLPE). The description is as above. As to conditions: evaluated after 14 or 15 days; for pest or weed control at 125 g/ha / pest or weed control at 500 g/ha: Lolium perenne, read-out: Post-emergence activity, LOLPE (100=total damage to plant; 0=no damage to plant); for pest or weed control at 125 g/ha: rate 125 g/ha. The gist of the method: as §1

Assay [6] has as its system Alopecurus myosuroides (ALOMY). The assay is described as above. The following applies: evaluated after 14 or 15 days; for pest or weed control at 125 g/ha / pest or weed control at 500 g/ha: Alopecurus myosuroides, read-out: Post-emergence activity, ALOMY (100=total damage to plant; 0=no damage to plant); for pest or weed control at 125 g/ha: rate 125 g/ha. The gist of the method: as §1

Assay [7] relates to Avena fatua (AVEFA). The experiment in a line: Pre-emergence herbicidal activity, glasshouse pot test. The following applies: rate 500 g/ha, evaluated after 20 days; for pest or weed control at 500 g/ha: Avena fatua, 480 h, read-out: Pre-emergence activity, AVEFA (100=total damage to plant; 0=no damage to plant). A digest of the protocol:
(§2)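 Seeds were sown in sterilised standard soil in pots and sprayed one day later with an aqueous dilution of the active ingredient formulated in acetone plus Emulsogen EL/N-methylpyrrolidone/dipropylene glycol monomethyl ether/X-77. Plants grew under optimum greenhouse conditions, and damage was rated visually after 20 days (0 = none, 100 = total).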

The test system of assay [8] is Digitaria sanguinalis (DIGSA). Described as above. The following applies: rate 500 g/ha, evaluated after 20 days; for pest or weed control at 500 g/ha: Digitaria sanguinalis, 480 h, read-out: Pre-emergence activity, DIGSA (100=total damage to plant; 0=no damage to plant). The gist of the method: as §2
In assay [9] the test system is Setaria faberi (SETFA). The description is as above. As to conditions: rate 500 g/ha, evaluated after 20 days; for pest or weed control at 500 g/ha: Setaria faberi, 480 h, read-out: Pre-emergence activity, SETFA (100=total damage to plant; 0=no damage to plant). A digest of the protocol: as §2
Assay [10] relates to Echinochloa crus-galli (ECHCG). Described as above. As to conditions: rate 500 g/ha, evaluated after 20 days; for pest or weed control at 500 g/ha: Echinochloa crus-galli, 480 h, read-out: Pre-emergence activity, ECHCG (100=total damage to plant; 0=no damage to plant). A digest of the protocol:
as §2

Assay [11] has as its system Lolium perenne (LOLPE). Described as above. As to conditions: rate 500 g/ha, evaluated after 20 days; for pest or weed control at 500 g/ha: Lolium perenne, 480 h, read-out: Pre-emergence activity, LOLPE (100=total damage to plant; 0=no damage to plant). A digest of the protocol:
as §2

The subject of assay [12] is Alopecurus myosuroides (ALOMY). The assay is described as above. The following applies: rate 500 g/ha, evaluated after 20 days; for pest or weed control at 500 g/ha: Alopecurus myosuroides, 480 h, read-out: Pre-emergence activity, ALOMY (100=total damage to plant; 0=no damage to plant). The gist of the method:
as §2

For the compound `CCc1cc(C)cc(CC)c1C1=C(OC)CC2(CCOCC2)CC1=O` [Compound P32], the pest or weed control at 125 g/ha in the assay with Avena fatua (AVEFA) [1] worked out at 0%; in assay [2] it was 0%; in the assay on Setaria faberi (SETFA) [3], 0%; in [4], 0%; with Lolium perenne (LOLPE) [5], 0%; in assay [6] it was 20%. For the same compound, the pest or weed control at 500 g/ha is 100% in the assay with Avena fatua (AVEFA) [7]; 50% in [8]; 10% in the assay with Setaria faberi (SETFA) [9]; 20% in [10]; 100% with Lolium perenne (LOLPE) [11]; 100% in assay [12].

As to `CCCSC(C)CC1CC(=O)C(c2c(CC)cc(C)cc2CC)=C(O)C1` (stereo not drawn) [Compound T32], the pest or weed control at 500 g/ha in the assay on Avena fatua (AVEFA) [1] (rate 500 g/ha) stood at 80%; in assay [2] (rate 500 g/ha), 100%; in the assay with Setaria faberi (SETFA) [3] (rate 500 g/ha) it was 100%; in assay [4] (rate 500 g/ha), 100%; in the assay on Lolium perenne (LOLPE) [5] (rate 500 g/ha) it was 90%; in [6] (rate 500 g/ha) it was 80%. For the same compound, the pest or weed control at 500 g/ha with Avena fatua (AVEFA) [7] came to 80%; in assay [8], 100%; in the assay on Setaria faberi (SETFA) [9], 100%; in assay [10], 100%; in the assay with Lolium perenne (LOLPE) [11], 100%; in assay [12], 90%.

In the case of `CCc1cc(C)cc(CC)c1C1=C(O)CC(CC[S+](C)[O-])CC1=O` (stereo not drawn) [Compound T15], the pest or weed control at 500 g/ha in the assay with Avena fatua (AVEFA) [1] (rate 500 g/ha) amounted to 80%; in assay [2] (rate 500 g/ha), 100%; with Setaria faberi (SETFA) [3] (rate 500 g/ha) it was 80%; in [4] (rate 500 g/ha), 100%; with Lolium perenne (LOLPE) [5] (rate 500 g/ha) it was 100%; in assay [6] (rate 500 g/ha) it was 90%. Further, the pest or weed control at 500 g/ha in the assay with Avena fatua (AVEFA) [7] came to 80%; in [8], 100%; with Setaria faberi (SETFA) [9], 90%; in [10], 100%; with Lolium perenne (LOLPE) [11] it was 100%; in [12], 100%.

`CCc1cc(CC)c(C2=C(OC(=O)C(C)(C)C)CC3(CCOCC3)CC2=O)c(CC)c1` [Compound P49]: the pest or weed control at 500 g/ha with Avena fatua (AVEFA) [1] (rate 500 g/ha) came to 10%; in [2] (rate 500 g/ha), 90%; with Setaria faberi (SETFA) [3] (rate 500 g/ha) it was 80%; in assay [4] (rate 500 g/ha), 90%; in the assay on Lolium perenne (LOLPE) [5] (rate 500 g/ha) it was 50%; in [6] (rate 500 g/ha), 60%. Moreover, the pest or weed control at 500 g/ha in the assay on Avena fatua (AVEFA) [7] turned out to be 60%; in assay [8], 100%; with Setaria faberi (SETFA) [9], 100%; in assay [10], 100%; in the assay with Lolium perenne (LOLPE) [11] it was 100%; in assay [12] it was 100%.

With `CCc1cc(C)cc(CC)c1C1=C(O)CC(CC(C)S(=O)(=O)CC)CC1=O` (stereo not drawn) [Compound T28, 2-(2,6-diethyl-4-methylphenyl)-5-[2-(ethylsulfonyl)propyl]cyclohexane-1,3-dione], the pest or weed control at 500 g/ha with Avena fatua (AVEFA) [1] (rate 500 g/ha) was determined as 100%; in assay [2] (rate 500 g/ha) it was 100%; in the assay on Setaria faberi (SETFA) [3] (rate 500 g/ha) it was 90%; in assay [4] (rate 500 g/ha), 100%; with Lolium perenne (LOLPE) [5] (rate 500 g/ha), 80%; in assay [6] (rate 500 g/ha) it was 90%. The pest or weed control at 500 g/ha in the assay on Avena fatua (AVEFA) [7] was 100%; in assay [8], 100%; in the assay on Setaria faberi (SETFA) [9], 100%; in [10], 100%; in the assay on Lolium perenne (LOLPE) [11], 100%; in assay [12] it was 70%.

`CCc1cc(C)cc(CC)c1C1=C(OC(=O)OCc2ccccc2)CC2(CCOCC2)CC1=O` [Compound P17]: the pest or weed control at 125 g/ha was 80% in the assay on Avena fatua (AVEFA) [1]; 70% in assay [2]; 70% in the assay on Setaria faberi (SETFA) [3]; 70% in assay [4]; 80% with Lolium perenne (LOLPE) [5]; 90% in [6]. Besides, the pest or weed control at 500 g/ha (in the assay on Avena fatua (AVEFA) [7]; in assay [8]; in the assay with Setaria faberi (SETFA) [9]; in assay [10]; in the assay with Lolium perenne (LOLPE) [11]; in assay [12]) was 100% each time.

For `CCc1cc(C)cc(CC)c1C1=C(O)CC(CCS(C)(=O)=O)CC1=O` (stereo not drawn) [Compound T31], in the assay on Avena fatua (AVEFA) [1] (rate 500 g/ha), the “Post-emergence activity, AVEFA (100=total damage to plant; 0=no damage to plant)” value turned out to be 60. The “Post-emergence activity, DIGSA (100=total damage to plant; 0=no damage to plant)” value in assay [2] (rate 500 g/ha) is 100. Also, the “Post-emergence activity, SETFA (100=total damage to plant; 0=no damage to plant)” value in the assay on Setaria faberi (SETFA) [3] (rate 500 g/ha) is listed as 100. In addition, the “Post-emergence activity, ECHCG (100=total damage to plant; 0=no damage to plant)” value in assay [4] (rate 500 g/ha) is recorded as 100. For the same compound, the “Post-emergence activity, LOLPE (100=total damage to plant; 0=no damage to plant)” value with Lolium perenne (LOLPE) [5] (rate 500 g/ha) was 90. In addition, in assay [6] (rate 500 g/ha), the “Post-emergence activity, ALOMY (100=total damage to plant; 0=no damage to plant)” value came out at 80. Besides, the “Pre-emergence activity, AVEFA (100=total damage to plant; 0=no damage to plant)” value in the assay with Avena fatua (AVEFA) [7] stood at 80. Moreover, the “Pre-emergence activity, DIGSA (100=total damage to plant; 0=no damage to plant)” value in assay [8] turned out to be 100. The “Pre-emergence activity, SETFA (100=total damage to plant; 0=no damage to plant)” value in the assay with Setaria faberi (SETFA) [9] is reported as 100. In [10], the “Pre-emergence activity, ECHCG (100=total damage to plant; 0=no damage to plant)” value was found to be 100. Further, the “Pre-emergence activity, LOLPE (100=total damage to plant; 0=no damage to plant)” value in the assay with Lolium perenne (LOLPE) [11] is recorded as 100. Further, the “Pre-emergence activity, ALOMY (100=total damage to plant; 0=no damage to plant)” value in [12] stood at 80.

Regarding `CCc1cc(C)cc(CC)c1C1=C(OS(=O)(=O)CC(F)(F)F)CC2(CCOCC2)CC1=O` [Compound P27], the pest or weed control at 125 g/ha amounted to 50% with Avena fatua (AVEFA) [1]; 70% in assay [2]; 50% in the assay on Setaria faberi (SETFA) [3]; 70% in assay [4]; 70% in the assay with Lolium perenne (LOLPE) [5]; 70% in assay [6]. Moreover, the pest or weed control at 500 g/ha (in the assay with Avena fatua (AVEFA) [7]; in [8]; in the assay with Setaria faberi (SETFA) [9]; in assay [10]; in the assay on Lolium perenne (LOLPE) [11]; in [12]) was 100% throughout.
